From the kinase profiling compilation of Christmann-Franck et al. (2016)

What was measured:
Test in all cases: radiometric filter-binding kinase assay, Kinase HotSpot
Details in all cases: compound 0.5 µM; ATP 10 µM
MAP3K7 TAB1 (human) = MAP3K7 TAB1 (human) (UniProt O43318+Q15750)
TSSK1B (human) = TSSK1B (human) (UniProt Q9BXA7)
STK38 (human) = STK38 (human) (UniProt Q15208)
WNK3 (human) = WNK3 (human) (UniProt Q9BYP7)
FLT3 (human) = FLT3 (human) (UniProt P36888)
CSF1R (human) = CSF1R (human) (UniProt P07333)
PAK2 (human) = PAK2 (human) (UniProt Q13177)
[1] = system: MKNK1 (human), Q9BUB5 [T385D; 165-205 del]
EPHB4 (human) = EPHB4 (human) (UniProt P54760)
PRKD3 (human) = PRKD3 (human) (UniProt O94806)
CDK3 CCNE1 (human) = CDK3 CCNE1 (human) (UniProt Q00526+P24864)
LTK (human) = LTK (human) (UniProt P29376)
ULK2 (human) = ULK2 (human) (UniProt Q8IYT8)
WEE1 (human) = WEE1 (human) (UniProt P30291)
PHKG2 (human) = PHKG2 (human) (UniProt P15735)
PRKACA (human) = PRKACA (human) (UniProt P17612)
PTK6 (human) = PTK6 (human) (UniProt Q13882)
NEK1 (human) = NEK1 (human) (UniProt Q96PY6)
PIM1 (human) = PIM1 (human) (UniProt P11309)
IRAK4 (human) = IRAK4 (human) (UniProt Q9NWZ3)
CDK9 CCNK (human) = CDK9 CCNK (human) (UniProt O75909+P50750)
PRKCE (human) = PRKCE (human) (UniProt Q02156)
MYO3B (human) = MYO3B (human) (UniProt Q8WXR4)
CDK4 CCND1 (human) = CDK4 CCND1 (human) (UniProt P24385+P11802)
CSNK1G1 (human) = CSNK1G1 (human) (UniProt Q9HCP0)
PRKACG (human) = PRKACG (human) (UniProt P22612)
CAMK4 (human) = CAMK4 (human) (UniProt Q16566)
NTRK1 (human) = NTRK1 (human) (UniProt P04629)
EPHA7 (human) = EPHA7 (human) (UniProt Q15375)
NEK9 (human) = NEK9 (human) (UniProt Q8TD19)
CSNK2A2 (human) = CSNK2A2 (human) (UniProt P19784)
CHEK1 (human) = CHEK1 (human) (UniProt O14757)
IKBKE (human) = IKBKE (human) (UniProt Q14164)
EPHB3 (human) = EPHB3 (human) (UniProt P54753)
LRRK2 (human) = LRRK2 (human) (UniProt Q5S007)
MAPK9 (human) = MAPK9 (human) (UniProt P45984)
ULK3 (human) = ULK3 (human) (UniProt Q6PHR2)
STK3 (human) = STK3 (human) (UniProt Q13188)
STK16 (human) = STK16 (human) (UniProt O75716)
PKN2 (human) = PKN2 (human) (UniProt Q16513)
EPHA8 (human) = EPHA8 (human) (UniProt P29322)
AKT2 (human) = AKT2 (human) (UniProt P31751)
Sequence of AKT2 (human) (P31751 whole entry, looked up): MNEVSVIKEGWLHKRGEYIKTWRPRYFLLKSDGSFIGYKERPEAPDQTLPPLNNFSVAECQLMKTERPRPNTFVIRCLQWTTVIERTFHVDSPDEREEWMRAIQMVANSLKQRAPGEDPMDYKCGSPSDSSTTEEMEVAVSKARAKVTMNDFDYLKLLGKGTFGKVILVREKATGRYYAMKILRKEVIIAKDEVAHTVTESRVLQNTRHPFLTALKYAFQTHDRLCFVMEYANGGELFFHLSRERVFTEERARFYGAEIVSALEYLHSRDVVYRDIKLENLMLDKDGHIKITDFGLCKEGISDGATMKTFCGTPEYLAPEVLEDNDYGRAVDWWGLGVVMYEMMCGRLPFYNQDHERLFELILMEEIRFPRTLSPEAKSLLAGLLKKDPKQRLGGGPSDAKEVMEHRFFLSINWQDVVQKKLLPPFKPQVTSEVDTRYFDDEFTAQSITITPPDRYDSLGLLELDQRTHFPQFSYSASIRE

Sequence of CHEK1 (human) (O14757 whole entry, looked up): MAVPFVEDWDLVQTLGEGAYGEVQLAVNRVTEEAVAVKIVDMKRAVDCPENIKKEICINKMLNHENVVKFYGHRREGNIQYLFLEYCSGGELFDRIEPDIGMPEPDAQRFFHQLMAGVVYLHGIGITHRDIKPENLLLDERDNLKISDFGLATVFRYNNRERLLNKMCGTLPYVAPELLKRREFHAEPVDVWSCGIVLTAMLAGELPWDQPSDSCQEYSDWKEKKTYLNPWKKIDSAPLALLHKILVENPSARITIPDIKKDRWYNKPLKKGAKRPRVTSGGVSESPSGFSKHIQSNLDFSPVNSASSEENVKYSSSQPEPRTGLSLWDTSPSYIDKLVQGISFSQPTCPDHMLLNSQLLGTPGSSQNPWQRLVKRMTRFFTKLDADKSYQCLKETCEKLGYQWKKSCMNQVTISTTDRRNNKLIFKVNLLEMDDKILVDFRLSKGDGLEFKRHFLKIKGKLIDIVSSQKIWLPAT
Sequence of PIM1 (human) (P11309 whole entry, looked up): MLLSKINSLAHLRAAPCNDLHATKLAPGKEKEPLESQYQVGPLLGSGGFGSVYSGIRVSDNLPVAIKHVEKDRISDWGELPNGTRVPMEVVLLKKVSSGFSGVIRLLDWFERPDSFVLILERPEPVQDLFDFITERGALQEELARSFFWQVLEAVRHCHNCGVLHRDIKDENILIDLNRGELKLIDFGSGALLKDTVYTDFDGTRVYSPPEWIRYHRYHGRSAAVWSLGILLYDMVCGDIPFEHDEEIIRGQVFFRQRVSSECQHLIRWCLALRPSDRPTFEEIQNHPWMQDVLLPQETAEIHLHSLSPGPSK
Sequence of CSF1R (human) (P07333 whole entry, looked up): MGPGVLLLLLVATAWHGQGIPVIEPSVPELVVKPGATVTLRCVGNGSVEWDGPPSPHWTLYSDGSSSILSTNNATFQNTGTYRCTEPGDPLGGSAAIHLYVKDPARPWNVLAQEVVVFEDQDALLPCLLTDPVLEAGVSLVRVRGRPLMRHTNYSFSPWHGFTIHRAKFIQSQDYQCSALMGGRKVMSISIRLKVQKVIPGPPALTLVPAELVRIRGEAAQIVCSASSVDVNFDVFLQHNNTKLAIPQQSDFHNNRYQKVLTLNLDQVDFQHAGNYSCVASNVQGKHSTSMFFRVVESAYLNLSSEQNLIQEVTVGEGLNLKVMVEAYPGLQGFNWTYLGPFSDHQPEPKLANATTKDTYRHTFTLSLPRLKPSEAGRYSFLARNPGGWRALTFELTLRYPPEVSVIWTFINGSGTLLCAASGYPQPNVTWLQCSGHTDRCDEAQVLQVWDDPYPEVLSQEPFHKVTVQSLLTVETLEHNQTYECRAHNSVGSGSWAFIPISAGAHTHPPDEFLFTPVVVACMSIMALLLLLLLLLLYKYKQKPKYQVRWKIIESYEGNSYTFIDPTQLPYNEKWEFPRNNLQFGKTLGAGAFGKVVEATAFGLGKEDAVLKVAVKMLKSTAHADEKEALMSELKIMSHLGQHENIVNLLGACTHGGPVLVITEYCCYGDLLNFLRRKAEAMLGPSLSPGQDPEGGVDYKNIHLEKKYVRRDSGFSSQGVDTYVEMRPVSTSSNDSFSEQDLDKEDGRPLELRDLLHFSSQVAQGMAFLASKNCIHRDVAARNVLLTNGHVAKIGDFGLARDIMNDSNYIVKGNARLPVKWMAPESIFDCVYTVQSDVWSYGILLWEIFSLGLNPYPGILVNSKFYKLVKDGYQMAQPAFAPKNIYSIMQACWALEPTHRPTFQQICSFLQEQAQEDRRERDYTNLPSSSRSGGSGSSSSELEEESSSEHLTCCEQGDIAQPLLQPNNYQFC
Sequence of WEE1 (human) (P30291 whole entry, looked up): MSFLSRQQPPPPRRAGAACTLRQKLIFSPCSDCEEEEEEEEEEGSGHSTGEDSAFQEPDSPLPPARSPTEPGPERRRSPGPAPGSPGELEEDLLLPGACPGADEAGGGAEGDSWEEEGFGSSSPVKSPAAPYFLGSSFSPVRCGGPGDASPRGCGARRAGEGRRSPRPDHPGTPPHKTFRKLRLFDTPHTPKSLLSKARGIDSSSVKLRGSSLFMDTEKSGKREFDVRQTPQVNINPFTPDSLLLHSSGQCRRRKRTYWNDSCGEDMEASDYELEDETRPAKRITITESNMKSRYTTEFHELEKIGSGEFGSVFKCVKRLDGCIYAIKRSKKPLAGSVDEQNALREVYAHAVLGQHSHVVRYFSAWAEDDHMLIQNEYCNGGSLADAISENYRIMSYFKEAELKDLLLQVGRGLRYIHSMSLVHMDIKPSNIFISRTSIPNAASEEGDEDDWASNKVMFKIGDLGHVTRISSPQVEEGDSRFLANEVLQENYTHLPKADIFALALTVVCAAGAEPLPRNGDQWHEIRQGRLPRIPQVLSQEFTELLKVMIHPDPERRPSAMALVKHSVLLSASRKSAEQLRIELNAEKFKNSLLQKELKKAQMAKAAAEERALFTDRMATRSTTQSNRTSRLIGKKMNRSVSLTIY
Sequence of MAPK9 (human) (P45984 whole entry, looked up): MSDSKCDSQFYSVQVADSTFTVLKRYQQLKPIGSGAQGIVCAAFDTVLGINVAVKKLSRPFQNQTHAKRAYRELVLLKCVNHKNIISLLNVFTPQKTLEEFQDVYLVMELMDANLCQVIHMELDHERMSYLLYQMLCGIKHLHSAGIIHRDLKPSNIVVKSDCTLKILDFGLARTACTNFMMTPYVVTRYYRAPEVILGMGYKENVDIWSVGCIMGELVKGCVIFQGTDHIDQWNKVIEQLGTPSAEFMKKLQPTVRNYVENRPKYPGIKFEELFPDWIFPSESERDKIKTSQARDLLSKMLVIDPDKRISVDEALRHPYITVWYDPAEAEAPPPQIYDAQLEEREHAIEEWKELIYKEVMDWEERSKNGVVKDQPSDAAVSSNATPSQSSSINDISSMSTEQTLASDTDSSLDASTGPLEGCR
Sequence of TSSK1B (human) (Q9BXA7 whole entry, looked up): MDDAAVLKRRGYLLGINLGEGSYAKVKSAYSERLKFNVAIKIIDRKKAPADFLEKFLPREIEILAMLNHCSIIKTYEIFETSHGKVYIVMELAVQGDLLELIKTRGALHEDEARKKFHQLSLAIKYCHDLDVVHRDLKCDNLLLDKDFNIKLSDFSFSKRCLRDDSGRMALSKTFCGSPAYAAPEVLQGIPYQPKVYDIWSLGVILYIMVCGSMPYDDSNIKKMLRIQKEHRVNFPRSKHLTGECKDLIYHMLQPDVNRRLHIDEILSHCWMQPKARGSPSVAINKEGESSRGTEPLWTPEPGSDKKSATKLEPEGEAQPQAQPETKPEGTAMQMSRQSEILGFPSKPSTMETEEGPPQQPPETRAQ
Sequence of IKBKE (human) (Q14164 whole entry, looked up): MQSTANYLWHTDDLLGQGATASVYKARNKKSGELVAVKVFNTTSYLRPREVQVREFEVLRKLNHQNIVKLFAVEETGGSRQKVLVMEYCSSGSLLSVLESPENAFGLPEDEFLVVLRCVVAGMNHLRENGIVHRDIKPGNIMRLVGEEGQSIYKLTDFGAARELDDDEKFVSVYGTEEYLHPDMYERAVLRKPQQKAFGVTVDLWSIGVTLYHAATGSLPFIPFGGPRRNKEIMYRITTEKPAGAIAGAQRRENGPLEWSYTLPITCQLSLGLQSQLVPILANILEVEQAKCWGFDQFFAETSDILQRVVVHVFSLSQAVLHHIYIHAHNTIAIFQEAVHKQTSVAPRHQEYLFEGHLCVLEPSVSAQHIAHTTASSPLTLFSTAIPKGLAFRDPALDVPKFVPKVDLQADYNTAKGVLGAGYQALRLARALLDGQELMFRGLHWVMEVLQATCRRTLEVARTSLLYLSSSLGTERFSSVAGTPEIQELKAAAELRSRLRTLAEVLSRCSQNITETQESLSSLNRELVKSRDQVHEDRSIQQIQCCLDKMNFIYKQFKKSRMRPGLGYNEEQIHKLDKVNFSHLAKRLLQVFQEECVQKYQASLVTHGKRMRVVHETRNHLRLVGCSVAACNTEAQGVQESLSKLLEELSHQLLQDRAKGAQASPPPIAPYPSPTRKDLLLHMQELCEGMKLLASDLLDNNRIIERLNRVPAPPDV
Sequence of CSNK1G1 (human) (Q9HCP0 whole entry, looked up): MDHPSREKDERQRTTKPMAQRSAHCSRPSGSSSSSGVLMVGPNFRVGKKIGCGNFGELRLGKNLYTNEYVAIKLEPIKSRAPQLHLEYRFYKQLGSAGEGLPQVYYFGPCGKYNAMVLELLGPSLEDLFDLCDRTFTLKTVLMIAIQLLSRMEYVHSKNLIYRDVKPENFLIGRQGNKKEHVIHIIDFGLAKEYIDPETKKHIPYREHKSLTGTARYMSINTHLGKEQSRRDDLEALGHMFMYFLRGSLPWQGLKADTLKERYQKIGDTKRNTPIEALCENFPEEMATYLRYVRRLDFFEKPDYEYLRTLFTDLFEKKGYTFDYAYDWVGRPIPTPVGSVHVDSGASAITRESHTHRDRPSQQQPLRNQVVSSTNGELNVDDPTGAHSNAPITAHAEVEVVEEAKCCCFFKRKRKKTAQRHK

`Cc1cccc(-c2nc(C(C)(C)C)[nH]c2-c2ccc3c(c2)OCO3)n1` gave a residual activity (MAP3K7 TAB1 (human)) of 96.3%, a residual activity (TSSK1B (human)) of 103% and a residual activity (STK38 (human)) of 91.7%. It also gave a residual activity (WNK3 (human)) of 94.1%, a residual activity (FLT3 (human)) of 96.2% and a residual activity (CSF1R (human)) of 102%. For the same compound, the residual activity (PAK2 (human)) was 72.4%, the residual activity [1] was 86.8% and the residual activity (EPHB4 (human)) was 91.4%. For the same compound, the residual activity (PRKD3 (human)) was 89.3%, the residual activity (CDK3 CCNE1 (human)) was 97.6% and the residual activity (LTK (human)) was 99.2%. The residual activity (ULK2 (human)) was 75.4%, the residual activity (WEE1 (human)) was 81.5% and the residual activity (PHKG2 (human)) was 107%. For the same compound, the residual activity (PRKACA (human)) was 102%, the residual activity (PTK6 (human)) was 87.7% and the residual activity (NEK1 (human)) was 78.9%. The residual activity (PIM1 (human)) was 100%, the residual activity (IRAK4 (human)) was 86.8% and the residual activity (CDK9 CCNK (human)) was 106%. The residual activity (PRKCE (human)) was 97.9%, the residual activity (MYO3B (human)) was 79.2% and the residual activity (CDK4 CCND1 (human)) was 105%. For the same compound, the residual activity (CSNK1G1 (human)) was 79.4%, the residual activity (PRKACG (human)) was 119% and the residual activity (CAMK4 (human)) was 100%. The residual activity (NTRK1 (human)) was 96.5%, the residual activity (EPHA7 (human)) was 81.6% and the residual activity (NEK9 (human)) was 95.6%. For the same compound, the residual activity (CSNK2A2 (human)) was 83.6%, the residual activity (CHEK1 (human)) was 89.8% and the residual activity (IKBKE (human)) was 91.8%. For the same compound, the residual activity (EPHB3 (human)) was 103%, the residual activity (LRRK2 (human)) was 103% and the residual activity (MAPK9 (human)) was 98.2%. It also gave a residual activity (ULK3 (human)) of 80.4%, a residual activity (STK3 (human)) of 97.7% and a residual activity (STK16 (human)) of 90.1%. It also gave a residual activity (PKN2 (human)) of 93.5%, a residual activity (EPHA8 (human)) of 89.9% and a residual activity (AKT2 (human)) of 80.1%.
`N#Cc1c[nH]c2c[nH]/c(=N\Cc3cccnc3)cc2/c1=N\c1ccc(F)c(Cl)c1` gave a residual activity (MAP3K7 TAB1 (human)) of 89.5%, a residual activity (TSSK1B (human)) of 84.4% and a residual activity (STK38 (human)) of 93.9%. For the same compound, the residual activity (WNK3 (human)) was 92.4%, the residual activity (FLT3 (human)) was 83.6% and the residual activity (CSF1R (human)) was 96.3%. It also gave a residual activity (PAK2 (human)) of 66.6%, a residual activity [1] of 73.2% and a residual activity (EPHB4 (human)) of 85.2%. For the same compound, the residual activity (PRKD3 (human)) was 90.4%, the residual activity (CDK3 CCNE1 (human)) was 95.6% and the residual activity (LTK (human)) was 95.6%. For the same compound, the residual activity (ULK2 (human)) was 102%, the residual activity (WEE1 (human)) was 74.3% and the residual activity (PHKG2 (human)) was 88.3%. The residual activity (PRKACA (human)) was 92.2%, the residual activity (PTK6 (human)) was 84.1% and the residual activity (NEK1 (human)) was 20.5%. For the same compound, the residual activity (PIM1 (human)) was 92.7%, the residual activity (IRAK4 (human)) was 100% and the residual activity (CDK9 CCNK (human)) was 97.3%. The residual activity (PRKCE (human)) was 101%, the residual activity (MYO3B (human)) was 87.9% and the residual activity (CDK4 CCND1 (human)) was 97.6%. It also gave a residual activity (CSNK1G1 (human)) of 87%, a residual activity (PRKACG (human)) of 115% and a residual activity (CAMK4 (human)) of 95.2%. The residual activity (NTRK1 (human)) was 96.2%, the residual activity (EPHA7 (human)) was 83.7% and the residual activity (NEK9 (human)) was 96.3%. The residual activity (CSNK2A2 (human)) was 75.2%, the residual activity (CHEK1 (human)) was 90.2% and the residual activity (IKBKE (human)) was 90.6%. For the same compound, the residual activity (EPHB3 (human)) was 98.5%, the residual activity (LRRK2 (human)) was 86.6% and the residual activity (MAPK9 (human)) was 100%. It also gave a residual activity (ULK3 (human)) of 72%, a residual activity (STK3 (human)) of 94.3% and a residual activity (STK16 (human)) of 93.8%. It also gave a residual activity (PKN2 (human)) of 85.9%, a residual activity (EPHA8 (human)) of 91.2% and a residual activity (AKT2 (human)) of 101%.
Work on `CN(C)S(=O)(=O)c1ccc2c(c1)/C(=C/c1cc3c([nH]1)CCCC3)C(=O)N2` yielded a residual activity (MAP3K7 TAB1 (human)) of 89%, a residual activity (TSSK1B (human)) of 74.6% and a residual activity (STK38 (human)) of 94.6%. For the same compound, the residual activity (WNK3 (human)) was 96.5%, the residual activity (FLT3 (human)) was 10.2% and the residual activity (CSF1R (human)) was 37.2%. The residual activity (PAK2 (human)) was 92.5%, the residual activity [1] was 108% and the residual activity (EPHB4 (human)) was 85.8%. It also gave a residual activity (PRKD3 (human)) of 90.4%, a residual activity (CDK3 CCNE1 (human)) of 96.9% and a residual activity (LTK (human)) of 52.7%. For the same compound, the residual activity (ULK2 (human)) was 26.3%, the residual activity (WEE1 (human)) was 94.5% and the residual activity (PHKG2 (human)) was 78.8%. For the same compound, the residual activity (PRKACA (human)) was 106%, the residual activity (PTK6 (human)) was 56.3% and the residual activity (NEK1 (human)) was 93.1%. For the same compound, the residual activity (PIM1 (human)) was 101%, the residual activity (IRAK4 (human)) was 57.7% and the residual activity (CDK9 CCNK (human)) was 96.9%. For the same compound, the residual activity (PRKCE (human)) was 94.6%, the residual activity (MYO3B (human)) was 98.9% and the residual activity (CDK4 CCND1 (human)) was 107%. It also gave a residual activity (CSNK1G1 (human)) of 101%, a residual activity (PRKACG (human)) of 114% and a residual activity (CAMK4 (human)) of 96.6%. The residual activity (NTRK1 (human)) was 24.7%, the residual activity (EPHA7 (human)) was 91.1% and the residual activity (NEK9 (human)) was 93.2%. The residual activity (CSNK2A2 (human)) was 92.1%, the residual activity (CHEK1 (human)) was 76.3% and the residual activity (IKBKE (human)) was 87.9%. For the same compound, the residual activity (EPHB3 (human)) was 105%, the residual activity (LRRK2 (human)) was 1.78% and the residual activity (MAPK9 (human)) was 104%. The residual activity (ULK3 (human)) was 26.3%, the residual activity (STK3 (human)) was 24.3% and the residual activity (STK16 (human)) was 104%. It also gave a residual activity (PKN2 (human)) of 84.3%, a residual activity (EPHA8 (human)) of 100% and a residual activity (AKT2 (human)) of 105%.
